Measured values: ChEMBL document CHEMBL2331429, “Purgin II, a resin glycoside ester-type dimer and inhibitor of multidrug efflux pumps from Ipomoea purga” (J Nat Prod, 2013)
Active and inactive are the calls of the source. The rule behind the calls is not given here.

Experiments:
[1] = test system: MCF7; test: Cytotoxicity against human MCF7 cells after 72 hrs by SRB assay; format: cell-based; details: MCF7, 72 h
[2] = biological target: T1, ATP-dependent translocase ABCB1 (Homo sapiens, UniProt P08183); test: Inhibition of p-glycoprotein in human vinblastine-resistant MCF7 cells cultured in vinblastine-free medium assessed as potentiation of vinblastine-induced cytotoxicity at 25 ug/ml after 72 hrs by SRB assay; format: cell-based; details: mcf7, 72 h
T1 sequence (P08183 whole entry): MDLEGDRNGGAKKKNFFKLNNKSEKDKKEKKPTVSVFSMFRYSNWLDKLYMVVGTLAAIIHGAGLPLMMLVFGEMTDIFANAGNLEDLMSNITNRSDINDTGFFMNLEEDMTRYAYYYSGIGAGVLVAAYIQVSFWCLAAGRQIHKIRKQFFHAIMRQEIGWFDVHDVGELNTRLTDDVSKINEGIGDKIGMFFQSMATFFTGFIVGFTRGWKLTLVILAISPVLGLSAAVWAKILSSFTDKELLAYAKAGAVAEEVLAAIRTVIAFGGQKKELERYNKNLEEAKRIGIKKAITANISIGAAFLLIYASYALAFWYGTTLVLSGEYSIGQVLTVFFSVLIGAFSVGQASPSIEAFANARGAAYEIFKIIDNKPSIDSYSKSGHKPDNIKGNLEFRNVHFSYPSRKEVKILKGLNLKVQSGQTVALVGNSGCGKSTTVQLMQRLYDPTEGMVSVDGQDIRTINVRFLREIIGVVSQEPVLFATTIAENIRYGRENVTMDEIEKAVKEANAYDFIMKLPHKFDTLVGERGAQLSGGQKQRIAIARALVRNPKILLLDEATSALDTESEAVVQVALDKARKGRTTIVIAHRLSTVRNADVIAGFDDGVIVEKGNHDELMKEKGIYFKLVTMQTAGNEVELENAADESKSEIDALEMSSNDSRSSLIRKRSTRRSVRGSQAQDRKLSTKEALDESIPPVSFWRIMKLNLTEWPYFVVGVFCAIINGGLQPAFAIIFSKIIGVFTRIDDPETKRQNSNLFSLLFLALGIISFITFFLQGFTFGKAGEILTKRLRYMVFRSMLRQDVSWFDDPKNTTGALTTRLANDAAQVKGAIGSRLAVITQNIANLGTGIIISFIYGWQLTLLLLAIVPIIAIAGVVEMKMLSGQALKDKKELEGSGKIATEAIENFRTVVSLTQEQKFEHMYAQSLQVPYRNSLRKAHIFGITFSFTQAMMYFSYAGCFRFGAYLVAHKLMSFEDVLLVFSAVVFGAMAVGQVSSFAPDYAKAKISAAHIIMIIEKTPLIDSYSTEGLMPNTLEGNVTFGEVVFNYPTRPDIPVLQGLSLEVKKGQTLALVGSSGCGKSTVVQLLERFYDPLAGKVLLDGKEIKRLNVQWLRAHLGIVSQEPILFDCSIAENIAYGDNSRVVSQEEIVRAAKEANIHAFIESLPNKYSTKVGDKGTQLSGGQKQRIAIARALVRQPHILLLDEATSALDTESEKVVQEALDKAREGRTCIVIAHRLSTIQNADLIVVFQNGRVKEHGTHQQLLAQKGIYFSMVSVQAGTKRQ

[3] = test system: MCF7; test: Potentiation of vinblastine-induced cytotoxicity in human MCF7 cells at 25 ug/ml after 72 hrs by SRB assay; format: functional
[4] = test system: MCF7; test: Cytotoxicity against human vinblastine-resistant MCF7 cells after 72 hrs by SRB assay; format: cell-based; details: MCF7, 72 h
[5] = biological target: T1, ATP-dependent translocase ABCB1; test: Inhibition of p-glycoprotein in human vinblastine-resistant MCF7 cells cultured in medium containing vinblastine assessed as potentiation of vinblastine-induced cytotoxicity at 25 ug/ml after 72 hrs by SRB assay; format: cell-based; details: mcf7, 72 h
[6] = test system: MCF7; test: Reversible inhibition of p-glycoprotein in human vinblastine-resistant MCF7 cells assessed as increase of rhodamine-123 accumulation at 5 to 25 ug/ml measured up to 50 mins; format: cell-based
[7] = biological target: T1, ATP-dependent translocase ABCB1; test: Inhibition of p-glycoprotein in human vinblastine-resistant MCF7 cells assessed as increase of rhodamine-123 accumulation at 5 to 25 ug/ml measured up to 50 mins; format: cell-based; details: mcf7, 50 min
[8] = biological target: T1, ATP-dependent translocase ABCB1; test: Inhibition of p-glycoprotein in human vinblastine-resistant MCF7 cells cultured in medium containing vinblastine assessed as potentiation of vinblastine-induced cytotoxicity at 5 ug/ml after 72 hrs by SRB assay; format: cell-based; details: mcf7, 72 h
[9] = biological target: T1, ATP-dependent translocase ABCB1; test: Inhibition of p-glycoprotein in human vinblastine-resistant MCF7 cells assessed as increase of rhodamine-123 accumulation at 5 ug/ml measured up to 50 mins; format: cell-based; details: mcf7, 50 min
[10] = biological target: T1, ATP-dependent translocase ABCB1; test: Inhibition of p-glycoprotein in human vinblastine-resistant MCF7 cells cultured in vinblastine-free medium assessed as potentiation of vinblastine-induced cytotoxicity at 5 ug/ml after 72 hrs by SRB assay; format: cell-based; details: mcf7, 72 h

inhibition (INH) [7]	inhibition (INH) [9]	Structure (SMILES)	IC50 [1]	fold change (FC) [2]	fold change (FC) [3]	IC50 [4]	fold change (FC) [5]	inhibition [6]	fold change (FC) [8]	fold change (FC) [10]
–	–	CCCCCCCCCC(=O)O[C@H]1[C@H](O[C@@H]2[C@@H](O)[C@@H](O)[C@H](O[C@H]3[C@H](O[C@@H](CCCCC)CCCCCCCCCC(=O)O[C@H]4[C@H](O)[C@@H](O)[C@H](O[C@@H]5[C@@H](O[C@@H]6O[C@@H](C)[C@H](OC(=O)CCCCC)[C@@H](OC(=O)/C=C/c7ccccc7)[C@H]6O)[C@H](C)O[C@@H](O[C@@H]6[C@@H](O)[C@H]7OC(=O)CCCCCCCCC[C@H](CCCCC)O[C@@H]8O[C@H](CO)[C@@H](O)[C@H](O)[C@H]8O[C@@H]7O[C@H]6C)[C@@H]5OC(=O)CCCCCCCCC)O[C@@H]4CO)O[C@H](CO)[C@@H](O)[C@@H]3O)O[C@H]2C)O[C@@H](C)[C@H](O[C@@H]2O[C@@H](C)[C@H](OC(=O)CCCCC)[C@@H](OC(=O)/C=C/c3ccccc3)[C@H]2O)[C@H]1O[C@@H]1O[C@H](CO)[C@@H](O)[C@H](O)[C@H]1O [PURGIN III]	> 25 µg/mL	6.5	4.7	> 25 µg/mL	6.4	–	–	–
Active	–	CCCCCCCCCC(=O)O[C@H]1[C@H](O[C@@H]2[C@@H](O)[C@@H](O)[C@H](O[C@H]3[C@H](O[C@@H](CCCCC)CCCCCCCCCC(=O)O[C@H]4[C@H](O)[C@@H](O)[C@H](O[C@@H]5[C@@H](O[C@@H]6O[C@@H](C)[C@H](OC(=O)[C@@H](C)CC)[C@@H](OC(=O)/C=C/c7ccccc7)[C@H]6O)[C@H](C)O[C@@H](O[C@@H]6[C@@H](O)[C@H]7OC(=O)CCCCCCCCC[C@H](CCCCC)O[C@@H]8O[C@H](CO)[C@@H](O)[C@H](O)[C@H]8O[C@@H]7O[C@H]6C)[C@@H]5OC(=O)CCCCCCCCC)O[C@@H]4CO)O[C@H](CO)[C@@H](O)[C@@H]3O)O[C@H]2C)O[C@@H](C)[C@H](O[C@@H]2O[C@@H](C)[C@H](OC(=O)[C@@H](C)CC)[C@@H](OC(=O)/C=C/c3ccccc3)[C@H]2O)[C@H]1O[C@@H]1O[C@H](CO)[C@@H](O)[C@H](O)[C@H]1O [PURGIN II]	> 25 µg/mL	> 2140.6	>73.4	> 25 µg/mL	> 1687.5	Active	–	–
–	–	CCCCCCCCCCCC(=O)O[C@H]1[C@H](O[C@@H]2[C@@H](O)[C@@H](O)[C@H](O[C@H]3[C@H](O[C@@H](CCCCC)CCCCCCCCCC(=O)O[C@H]4[C@H](O)[C@@H](O)[C@H](O[C@@H]5[C@@H](O[C@@H]6O[C@@H](C)[C@H](OC(=O)[C@@H](C)CC)[C@@H](O)[C@H]6OC(=O)/C=C/c6ccccc6)[C@H](C)O[C@@H](O[C@@H]6[C@@H](O)[C@H]7OC(=O)CCCCCCCCC[C@H](CCCCC)O[C@@H]8O[C@H](C)[C@H](O)[C@H](O)[C@H]8O[C@@H]7O[C@H]6C)[C@@H]5OC(=O)CCCCCCCCCCC)O[C@@H]4CO)O[C@H](C)[C@H](O)[C@@H]3O)O[C@H]2C)O[C@@H](C)[C@H](O[C@@H]2O[C@@H](C)[C@H](OC(=O)[C@@H](C)CC)[C@@H](OC(=O)/C=C/c3ccccc3)[C@H]2O)[C@H]1O[C@@H]1O[C@H](CO)[C@@H](O)[C@H](O)[C@H]1O [PURGIN I]	> 25 µg/mL	3.8	2.9	> 25 µg/mL	4.7	–	–	–
–	–	CCCCCCCCCC(=O)O[C@H]1[C@H](O[C@@H]2[C@@H](O)[C@H]3OC(=O)CCCCCCCCC[C@H](CCCCC)O[C@@H]4O[C@H](C)[C@H](O)[C@H](O)[C@H]4O[C@@H]3O[C@H]2C)O[C@@H](C)[C@H](O[C@@H]2O[C@@H](C)[C@H](OC(=O)CCCCC)[C@@H](OC(=O)/C=C/c3ccccc3)[C@H]2O)[C@H]1O[C@@H]1O[C@H](CO)[C@@H](O)[C@H](O)[C@H]1O [PURGINOSIDE II]	> 25 µg/mL	1.4	1.4	> 25 µg/mL	1.2	–	–	–
–	–	CCCCCCCCCC(=O)O[C@H]1[C@H](O[C@@H]2[C@@H](O)[C@H]3OC(=O)CCCCCCCCC[C@H](CCCCC)O[C@@H]4O[C@H](C)[C@H](O)[C@H](O)[C@H]4O[C@@H]3O[C@H]2C)O[C@@H](C)[C@H](O[C@@H]2O[C@@H](C)[C@H](OC(=O)CCCCC)[C@@H](O)[C@H]2O)[C@H]1O[C@@H]1O[C@H](CO)[C@@H](O)[C@H](O)[C@H]1O [PURGINOSIDE IV]	> 25 µg/mL	3	2.5	> 25 µg/mL	3.3	–	–	–
–	–	CCCCCCCCCC(=O)O[C@H]1[C@H](O[C@@H]2[C@@H](O)[C@H]3OC(=O)CCCCCCCCC[C@H](CCCCC)O[C@@H]4O[C@H](C)[C@H](O)[C@H](O)[C@H]4O[C@@H]3O[C@H]2C)O[C@@H](C)[C@H](O[C@@H]2O[C@@H](C)[C@H](OC(=O)[C@@H](C)CC)[C@@H](O)[C@H]2OC(=O)/C=C/c2ccccc2)[C@H]1O[C@@H]1O[C@H](CO)[C@@H](O)[C@H](O)[C@H]1O [PURGINOSIDE I]	> 25 µg/mL	2.9	0.8	> 25 µg/mL	2.8	–	–	–
–	Active	COC(=O)[C@H]1[C@H]2C[C@@H]3c4[nH]c5cc(OC)ccc5c4CCN3C[C@H]2C[C@@H](OC(=O)c2cc(OC)c(OC)c(OC)c2)[C@@H]1OC [RESERPINE]	–	–	–	–	–	–	29.2	4.4
